# Results as given in paper PMC4289246, “Dose-dependent effects of lesogaberan on reflux measures in patients with refractory gastroesophageal reflux disease: a randomized, placebo-controlled study” (BMC Gastroenterology, 2014).
# What was measured:
# [1] = test system: patients with GERD who had a partial response to PPI treatment; assay: 24-h impedance–pH measurement of reflux variables, crossover vs placebo; type: in vivo, human; details: for Difference in geometric mean, number of reflux episodes in supine position / Difference in geometric mean, number of reflux episodes in upright position / Difference in geometric mean, number of weakly acid reflux episodes / Difference in geometric mean, number of acid reflux episodes / Difference in geometric mean, number of mixed gas/liquid reflux episodes / Difference in geometric mean, number of pure liquid reflux episodes / Difference in geometric mean, proportion of time with esophageal pH < 4 / Difference in geometric mean, proportion of time with intragastric pH < 4 / Difference in geometric mean, proximal extent of reflux (cm) / Difference in geometric mean, total number of reflux episodes: relative to placebo; for Difference in geometric mean, number of weakly acid reflux episodes: pH 4.0–6.5; for Difference in geometric mean, number of weakly acid reflux episodes / Difference in geometric mean, number of acid reflux episodes / Difference in geometric mean, number of mixed gas/liquid reflux episodes / Difference in geometric mean, number of pure liquid reflux episodes / Difference in geometric mean, proportion of time with esophageal pH < 4 / Difference in geometric mean, proportion of time with intragastric pH < 4 / Difference in geometric mean, proximal extent of reflux (cm) / Difference in geometric mean, total number of reflux episodes: upright or supine; for Difference in geometric mean, number of acid reflux episodes: pH < 4
# Procedure: This was a randomized, double-blind, placebo-controlled, four-way crossover, phase 2a study. Patients were randomized to receive one of 10 treatment sequences each consisting of placebo and three of the four different lesogaberan doses (30, 90, 120 and 240 mg). These were given on different days, each separated by a 7–28-day washout period. […] Each dose was given twice over a 24-h period in the form of modified-release capsules: one taken 1 h before breakfast after fasting the night before, and the other taken 1 h before dinner. (Note that patients fasted overnight before each study period: no food after 22:00 and no fluids after 24:00.) Treatment with patients’ usual, regular and optimized dose of PPI was continued throughout the study.
# Impedance–pH measurements were taken for 24 h after the first administration of each dose using a Sleuth® multichannel intraluminal impedance ambulatory system (Sandhill Scientific, Inc., Highlands Ranch, CO, USA). This device includes a data logger, impedance–pH amplifiers, and a catheter consisting of two antimony pH sensors (calibrated before and after recordings were taken using standard pH 7 and pH 1 buffers) placed 5 cm above and 10 cm below the lower esophageal sphincter (LES) and eight impedance electrodes placed 2, 4, 6, 8, 10, 14, 16 and 18 cm above the LES. The electrodes are paired to measure impedance at 3, 5, 7, 9, 15 and 17 cm above the LES. The position of the LES was located by a manometric recording before the study medication or placebo was given.
# Impedance–pH readings were analysed by one investigator (JP) using dedicated software (BioVIEW Analysis®, version 5.5.4; Sandhill Scientific Inc.) and were then checked manually. This was performed in a blinded manner and the results were used to determine the number of reflux episodes, defined as a period when impedance decreased to less than 50% of baseline (liquid episode) or increased to more than 150% of baseline (gas episode), propagating […] from the most distal channel. Acid, weakly acid and non-acid reflux episodes were defined as episodes lasting longer than 5 s with a pH of < 4, 4.0–6.5 and > 6.5, respectively. The decision to use a cautious cut-off pH of 6.5 was taken in order to ensure that no measurements near to a pH of 7 would be erroneously categorized as weakly acidic. These definitions have previously been employed for studies of this type. During the 24-h period of ambulatory impedance–pH measurement, patients used a data logger and a diary card to record their meal intake and periods in supine position, as well as any GERD symptoms.
# The effect of each dose of lesogaberan was measured as the proportional difference, relative to placebo, in the geometric mean of the reflux variables assessed over 24 h. The analysis was based on a mixed-effect model with treatment, period and sequence as fixed effects and patient as a random effect. Geometric means and relative differences in geometric means were reported with 95% CIs. A p value of < 0.05 was considered to indicate statistical significance and no corrections for multiple testing were performed. Multiplicity was accounted for by using a step-down sequential procedure comparing lesogaberan doses with placebo, starting at a 240 mg dose and, in the event of rejection of the null hypothesis, comparison of descending doses.
# [2] = test system: patients with GERD who had a partial response to PPI treatment; assay: Safety and tolerability assessments; type: in vivo, human
# Procedure: Sitting and orthostatic blood pressure and pulse rate were also assessed pre-dose and 2 h after the first dose of lesogaberan or placebo at each treatment visit. Patients ate meals (standardized primarily according to fat content and pH) approximately 1 h after each dose of study medication or placebo, and at the same time points during each study period. Patients were monitored for adverse events from the first dose administration until the follow-up visit 5–10 days after receiving the last dose. The active treatment period for each dose was defined as the time from the first dose of study drug to 24 h after the second dose of study drug in each treatment period. Patients also underwent active questioning to determine whether they experienced syncope, or feeling faint, lightheadedness, dizziness or paraesthesia before study treatment started and after removing the impedance–pH catheter. A 12-lead digital electrocardiogram (ECG) was scheduled at the screening visit, before and 2 h after the first dose of lesogaberan or placebo at each treatment visit, and at the follow-up visit. Blood and urine samples were taken at the pre-entry visit (full laboratory screen), and before and 24 h after the first dose of lesogaberan or placebo at each treatment visit (reduced laboratory screen) to assess clinical chemistry and haematology, and to screen for indications of drug abuse.
# The efficacy evaluation of the different doses of lesogaberan was based on data from all patients not affected by major protocol deviations and violations relevant to the analysis of a specific variable. The safety analysis set comprised all patients who received at least one dose of lesogaberan or placebo, and for whom post-dose data were available.
# [3] = test system: patients with GERD who have a partial response to PPI therapy; parameters: method as in PMID 20451523; details: 65 mg twice daily, partial responders to PPI therapy; cited from earlier work
# [4] = test system: partial responders to PPI treatment; parameters: method as in earlier work; details: cited from earlier work
# [5] = 30 mg twice in 24 h, add-on to PPI
# [6] = 90 mg twice in 24 h, add-on to PPI
# [7] = 120 mg twice in 24 h, add-on to PPI
# [8] = 240 mg twice in 24 h, add-on to PPI
# [9] = 2 h after first dose, 30–240 mg
structure (smiles),measurement,setting,value
"NC[C@@H](F)C[PH](=O)O [lesogaberan, (R)-(3-amino-2-fluoropropyl) phosphinic acid]","Difference in geometric mean, number of reflux episodes in supine position",[1]; [5],-37.3%
same,"Difference in geometric mean, number of reflux episodes in upright position",[1]; [5],-25.2%
same,"Difference in geometric mean, number of weakly acid reflux episodes",[1]; [5],-28.3%
same,"Difference in geometric mean, number of acid reflux episodes",[1]; [5],-34.7%
same,"Difference in geometric mean, number of mixed gas/liquid reflux episodes",[1]; [5],-25.0%
same,"Difference in geometric mean, number of pure liquid reflux episodes",[1]; [5],-27.9%
same,"Difference in geometric mean, proportion of time with esophageal pH < 4",[1]; [5],-69.8%
same,"Difference in geometric mean, proportion of time with intragastric pH < 4",[1]; [5],+40.4%
same,"Difference in geometric mean, proximal extent of reflux (cm)",[1]; [5],-39.1%
same,"Difference in geometric mean, total number of reflux episodes",[1]; [5],-26.2%
same,reduction in the mean number of pure liquid reflux episodes relative to placebo,[1]; [6],53.0%
same,reduction in the mean number of total reflux episodes relative to placebo,[1]; [6],approximately 37%
same,"Difference in geometric mean, number of reflux episodes in supine position",[1]; [6],-12.3%
same,"Difference in geometric mean, number of reflux episodes in upright position",[1]; [6],-38.4%
same,"Difference in geometric mean, number of weakly acid reflux episodes",[1]; [6],-31.4%
same,"Difference in geometric mean, number of acid reflux episodes",[1]; [6],-45.5%
same,"Difference in geometric mean, number of mixed gas/liquid reflux episodes",[1]; [6],-28.3%
same,"Difference in geometric mean, number of pure liquid reflux episodes",[1]; [6],-53.0%
same,"Difference in geometric mean, proportion of time with esophageal pH < 4",[1]; [6],-56.1%
same,"Difference in geometric mean, proportion of time with intragastric pH < 4",[1]; [6],+23.7%
same,"Difference in geometric mean, proximal extent of reflux (cm)",[1]; [6],-58.9%
same,"Difference in geometric mean, total number of reflux episodes",[1]; [6],-37.0%
same,reduction in the mean number of pure liquid reflux episodes relative to placebo,[1]; [7],44.1%
same,"Difference in geometric mean, number of reflux episodes in supine position",[1]; [7],-31.2%
same,"Difference in geometric mean, number of reflux episodes in upright position",[1]; [7],-46.1%
same,"Difference in geometric mean, number of weakly acid reflux episodes",[1]; [7],-44.5%
same,"Difference in geometric mean, number of acid reflux episodes",[1]; [7],-57.9%
same,"Difference in geometric mean, number of mixed gas/liquid reflux episodes",[1]; [7],-42.5%
same,"Difference in geometric mean, number of pure liquid reflux episodes",[1]; [7],-44.1%
same,"Difference in geometric mean, proportion of time with esophageal pH < 4",[1]; [7],-65.7%
same,"Difference in geometric mean, proportion of time with intragastric pH < 4",[1]; [7],+3.6%
same,"Difference in geometric mean, proximal extent of reflux (cm)",[1]; [7],-66.3%
same,"Difference in geometric mean, total number of reflux episodes",[1]; [7],-45.0%
same,reduction in the mean number of pure liquid reflux episodes relative to placebo,[1]; [8],51.9%
same,"Difference in geometric mean, number of reflux episodes in supine position",[1]; [8],-69.1%
same,"Difference in geometric mean, number of reflux episodes in upright position",[1]; [8],-50.7%
same,"Difference in geometric mean, number of weakly acid reflux episodes",[1]; [8],-45.1%
same,"Difference in geometric mean, number of acid reflux episodes",[1]; [8],-57.1%
same,"Difference in geometric mean, number of mixed gas/liquid reflux episodes",[1]; [8],-56.7%
same,"Difference in geometric mean, number of pure liquid reflux episodes",[1]; [8],-51.9%
same,"Difference in geometric mean, proportion of time with esophageal pH < 4",[1]; [8],-73.0%
same,"Difference in geometric mean, proportion of time with intragastric pH < 4",[1]; [8],+27.7%
same,"Difference in geometric mean, proximal extent of reflux (cm)",[1]; [8],-63.3%
same,"Difference in geometric mean, total number of reflux episodes",[1]; [8],-52.8%
same,effect on mean number of pure gas reflux episodes relative to placebo,"[1]; 30, 90, 120, 240 mg twice in 24 h, data not shown",No significant effect
same,effect on mean number of non-acid reflux episodes relative to placebo,"[1]; 30, 90, 120, 240 mg twice in 24 h, pH > 6.5, data not shown",No significant effect
same,"reduction relative to placebo in the mean number of reflux episodes, supine position","[1]; highest dose (240 mg) twice in 24 h, add-on to PPI",69.1%
same,adverse events during active dosing,[2]; 90 mg twice in 24 h,one patient reported headache and nausea
same,ECG readings,[2]; 12-lead ECG before and 2 h after first dose,No clinically significant changes in ECG readings
same,adverse events resulting in discontinuation,[2]; 30–240 mg twice in 24 h,no adverse events resulted in discontinuation
same,serious adverse events during active dosing periods,"[2]; 30–240 mg twice in 24 h, safety analysis set n = 27",No serious adverse events were reported
same,blood pressure compared with placebo,[2]; [9],slight decreases in blood pressure
same,pulse rate compared with placebo,[2]; [9],Slight increases in pulse rate
same,reduction in the mean number of total reflux episodes relative to placebo,[3],approximately 35%
same,effect on GERD symptoms,"[4]; 240 mg, phase 2b, partial responders to PPI treatment",does not have a clinically important effect on GERD symptoms
same,patients with reversible elevated alanine transaminase levels >5 times the upper limit of normal,[4]; phase 2b study,6 patients
